Experiment [1] relates to Ramos cells. The experiment in a line: Calcium flux assay, IgM-induced calcium influx in Ramos cells. The format is cell-based. As to conditions: Ramos cells stimulated with goat anti-human IgM antibody 10 μg/ml; read-out: Ramos Ca Flux. How it is done:
Calcium flux fluorescence-based assays were performed in aFDSS7000EX (Hamamatsu Photonics) fluorometric imaging plate reader according to manufacturer instructions. Compounds to be assayed were dissolved in DMSO, diluted to appropriate concentrations in Ca^2+ buffer ranging from 0 to 10 μM (at a dilution factor of 0.1), added 5 μl (6×) to each well (the final DMSO concentration was 0.1% in each well). Then 12.5 μL 2× dye loading solution (Fluo-4 NW Calcium Assay Kits, Invitrogen) was added per well of a 384-well plate. Afterwards, actively growing Ramos cells (ATCC) in RPM1640 medium supplemented with 10% FBS (Invitrogen) were washed and re-plated in assay buffer (from Fluo-4 NW Calcium Assay Kits, Invitrogen) to approximately 6.4×10^6/ml (80000 cells/12.5 μL in 384-well plates). […] The plates were now ready to be used in an experiment Immediately after the transfer and a 10-s recording of baseline fluorescence, the compound treated cells were stimulated with a goat anti-human IgM antibody (10 μg/ml; Jackson Immuno Research) and read in a FDSS for 240 seconds. Difference between the signal and that at baseline, designated adjusted relative fluorescence unit, was calculated by using a custom Excel (Microsoft, Redmond, Wash.) template to determine IgM-induced calcium influx and its inhibition by compounds. […]

In experiment [2] the target is T1, BTK (Homo sapiens (Human), UniProt Q06187). The experiment in a line: Btk kinase assay (HTRF). The format is biochemical. As to conditions: [ATP]=80 μM, BTK=3.4 nM. An outline of the steps: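 BTK (3.4 nM) incubated 1 h with inhibitor, 80 μM ATP and 1 μM peptide substrate in 50 mM HEPES pH 7.0 with BSA and orthovanadate. Reaction stopped with EDTA plus Eu-antibody/XL665; HTRF 665/615 ratio read after 1 h, IC50 calculated relative to no-inhibitor and no-enzyme controls.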
Target sequence in this assay (Q06187 whole entry, species assumed): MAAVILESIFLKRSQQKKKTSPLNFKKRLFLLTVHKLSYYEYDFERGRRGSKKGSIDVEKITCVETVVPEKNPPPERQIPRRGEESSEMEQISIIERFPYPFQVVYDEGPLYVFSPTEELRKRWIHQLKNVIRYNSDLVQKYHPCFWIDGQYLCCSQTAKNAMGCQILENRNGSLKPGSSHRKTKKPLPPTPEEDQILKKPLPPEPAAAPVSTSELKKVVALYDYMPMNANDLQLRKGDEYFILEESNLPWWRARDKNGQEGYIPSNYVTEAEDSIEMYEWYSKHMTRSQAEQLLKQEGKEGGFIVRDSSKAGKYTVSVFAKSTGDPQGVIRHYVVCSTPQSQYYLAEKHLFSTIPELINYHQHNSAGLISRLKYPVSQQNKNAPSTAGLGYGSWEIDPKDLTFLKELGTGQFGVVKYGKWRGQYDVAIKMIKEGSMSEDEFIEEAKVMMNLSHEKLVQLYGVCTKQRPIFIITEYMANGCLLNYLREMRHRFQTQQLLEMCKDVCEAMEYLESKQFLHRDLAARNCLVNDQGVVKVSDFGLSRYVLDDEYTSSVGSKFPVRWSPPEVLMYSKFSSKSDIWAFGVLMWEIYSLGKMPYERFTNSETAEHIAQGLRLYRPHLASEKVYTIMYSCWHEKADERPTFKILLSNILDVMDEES

The target of experiment [3] is LCK (Homo sapiens (Human), UniProt P06239). Kind of experiment: LCK kinase assay (HTRF). The format is biochemical. As to conditions: [ATP]=20 μM, LCK=0.2 nM.
The target of experiment [4] is T1, BTK. The experiment in a line: Btk occupancy in cellular assays (PCI-33380 labeling, Jeko-1 cells). As to conditions: 100 nM compound, 1.5 h pre-incubation, PCI-33380 probe. The format is cell-based. How it is done: For PCI-33380 labeling of human B cells, 10^6 Jeko-1 cells were pre-incubated with compound for 1.5 h before labeling. Then cells were treated with PCI-33380 at 5 μM for 1 h. Washed, lysed in Ripa buffer containing sample reducing agent, and analyzed by SDS/PAGE and fluorescent gel scanning using a Typhoon scanner 9500 (GE Healthcare) (Ex, 532 nm; Em, 555 nm). The gel was then blotted and total Btk levels detected by standard Western blot with Btk antibody (CST).
Target sequence in this assay (Q06187 whole entry): as the sequence (Q06187 whole entry, species assumed) above

In experiment [5] the target is LYN (Homo sapiens (Human), UniProt P07948). Kind of experiment: LYN kinase assay (HTRF). The format is biochemical. As to conditions: [ATP]=20 μM, LYN=0.12 nM.
In experiment [6] the target is BLK (Homo sapiens (Human), UniProt P51451). Kind of experiment: BLK kinase assay (HTRF). The format is biochemical. As to conditions: [ATP]=20 μM, BLK=0.6 nM.
In experiment [7] the target is Btk (Mus musculus (Mouse), UniProt P35991). Kind of experiment: Btk occupancy in vivo (PBMCs or splenocytes, PCI-33380 labeling). On the set-up: species or system Babc/L mice. As to conditions: 25 mg/kg single oral dose, Balb/c mice, after 4 hours. The method, then:
For analysis of Btk occupancy in Babc/L mice following oral dosing of compounds after 4 hours. Isolating peripheral blood mononuclear cells (PBMCs) with mouse peripheral blood separation kit (Hao Yang Biological Manufacture CO., LTD, Tianjin) were collected from Babc/L mice (1 ml blood from two mice). Spleens were processed to splenocytes followed by 5 min incubation in red blood cell lysing buffer (from mouse peripheral blood separation kit). PBMCs or splenocytes were then PCI-33380-labeled and lysates analyzed by fluorescent gel scanning as described in cellular assays.

The source of these data is patent US10358446B2, “Bruton's tyrosine kinase inhibitors” (Zibo Biopolar Changsheng Pharmaceutical Co. Ltd., priority 2015, dated 2019).

Like-named read-outs stand apart in the source and are kept apart here.

LCK, sequence (P06239 whole entry, species assumed): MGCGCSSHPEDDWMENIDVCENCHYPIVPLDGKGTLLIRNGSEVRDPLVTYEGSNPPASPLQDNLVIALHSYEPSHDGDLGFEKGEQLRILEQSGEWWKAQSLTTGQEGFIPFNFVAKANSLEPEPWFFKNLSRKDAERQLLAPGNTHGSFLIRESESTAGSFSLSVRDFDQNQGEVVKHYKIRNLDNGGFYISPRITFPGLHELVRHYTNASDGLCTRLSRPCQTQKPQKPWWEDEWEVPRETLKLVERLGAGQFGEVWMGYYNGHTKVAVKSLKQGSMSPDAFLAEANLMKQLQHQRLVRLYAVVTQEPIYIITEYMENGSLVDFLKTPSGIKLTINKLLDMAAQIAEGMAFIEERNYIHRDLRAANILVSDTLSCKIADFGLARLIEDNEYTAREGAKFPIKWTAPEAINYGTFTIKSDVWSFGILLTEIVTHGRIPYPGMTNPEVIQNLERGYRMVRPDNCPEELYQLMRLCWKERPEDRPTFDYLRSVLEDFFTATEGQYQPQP
LYN, sequence (P07948 whole entry, species assumed): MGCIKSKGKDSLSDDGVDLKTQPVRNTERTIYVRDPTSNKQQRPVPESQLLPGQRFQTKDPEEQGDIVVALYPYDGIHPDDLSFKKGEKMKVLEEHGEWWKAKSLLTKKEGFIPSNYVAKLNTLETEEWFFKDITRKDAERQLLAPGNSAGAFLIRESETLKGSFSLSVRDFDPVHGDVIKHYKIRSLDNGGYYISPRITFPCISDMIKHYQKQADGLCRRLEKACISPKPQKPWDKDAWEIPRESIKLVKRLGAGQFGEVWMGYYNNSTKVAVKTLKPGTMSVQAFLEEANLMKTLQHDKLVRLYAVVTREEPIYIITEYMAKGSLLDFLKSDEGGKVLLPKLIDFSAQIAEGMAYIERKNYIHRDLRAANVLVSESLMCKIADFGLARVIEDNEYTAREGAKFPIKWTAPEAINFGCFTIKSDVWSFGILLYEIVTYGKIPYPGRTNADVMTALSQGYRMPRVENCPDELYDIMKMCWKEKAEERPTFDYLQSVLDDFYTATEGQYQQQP
BLK, sequence (P51451 whole entry, species assumed): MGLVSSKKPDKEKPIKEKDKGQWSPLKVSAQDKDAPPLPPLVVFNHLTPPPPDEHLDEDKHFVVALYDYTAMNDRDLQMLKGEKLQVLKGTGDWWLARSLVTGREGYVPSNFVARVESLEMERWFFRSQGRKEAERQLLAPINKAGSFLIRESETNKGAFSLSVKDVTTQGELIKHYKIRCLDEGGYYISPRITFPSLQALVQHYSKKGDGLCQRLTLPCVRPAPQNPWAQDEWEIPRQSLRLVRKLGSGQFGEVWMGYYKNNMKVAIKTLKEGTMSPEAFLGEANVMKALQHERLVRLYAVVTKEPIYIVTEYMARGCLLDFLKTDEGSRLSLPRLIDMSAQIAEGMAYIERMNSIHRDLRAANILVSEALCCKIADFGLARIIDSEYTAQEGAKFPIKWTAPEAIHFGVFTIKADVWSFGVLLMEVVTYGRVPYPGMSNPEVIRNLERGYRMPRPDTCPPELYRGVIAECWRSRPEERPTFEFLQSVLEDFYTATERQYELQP
Btk, sequence (P35991 whole entry): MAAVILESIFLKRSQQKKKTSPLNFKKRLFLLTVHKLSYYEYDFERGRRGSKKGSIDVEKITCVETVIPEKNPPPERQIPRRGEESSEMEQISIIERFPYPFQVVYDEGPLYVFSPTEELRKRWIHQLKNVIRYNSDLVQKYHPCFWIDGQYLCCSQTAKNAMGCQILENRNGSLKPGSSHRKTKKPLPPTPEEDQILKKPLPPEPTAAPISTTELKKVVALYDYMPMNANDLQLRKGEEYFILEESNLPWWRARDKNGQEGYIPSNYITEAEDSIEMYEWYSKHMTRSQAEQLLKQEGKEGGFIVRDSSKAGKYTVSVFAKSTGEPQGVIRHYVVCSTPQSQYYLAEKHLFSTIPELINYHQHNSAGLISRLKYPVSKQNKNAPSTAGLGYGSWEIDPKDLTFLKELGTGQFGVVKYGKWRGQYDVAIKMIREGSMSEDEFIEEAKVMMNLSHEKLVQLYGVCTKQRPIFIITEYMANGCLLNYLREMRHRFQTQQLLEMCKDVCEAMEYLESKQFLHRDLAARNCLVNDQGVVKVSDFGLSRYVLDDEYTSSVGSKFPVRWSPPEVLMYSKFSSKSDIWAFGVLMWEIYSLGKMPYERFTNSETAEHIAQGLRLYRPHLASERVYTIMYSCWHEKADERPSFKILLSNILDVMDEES

On to `C=CC(=O)N1CC[C@@H](n2c(=O)n(-c3ccc(Oc4cccc(C)c4)cc3)c3cnccc32)C1` [Example 4, (R)-1-(1-acryloylpyrrolidin-3-yl)-3-(4-(m-tolyloxy)phenyl)-1H-imidazo[4,5-c]pyridin-2(3H)-one], for which the IC50 is 10 to 100 nM in experiment [1]; at most 10 nM in experiment [2] (Table 2, read-out: BTK IC50); at most 10 nM in experiment [2] (read-out: BTK Inhibition); 1 to 10 µM in experiment [3]; 1 to 10 µM in experiment [5]. The “occupancy of the active site of Btk” value in experiment [4] is reported as “fully occupy”.

For the compound `C=CC(=O)N1CC[C@@H](n2c(=O)n(-c3ccc(Oc4cccc(C)c4C)cc3)c3cnccc32)C1` [Example 51, (R)-1-(1-acryloylpyrrolidin-3-yl)-3-(4-(2,3-dimethylphenoxy)phenyl)-1H-imidazo[4,5-c] pyridin-2(3H)-one], the IC50 is at most 10 nM in experiment [2] (Table 2, read-out: BTK IC50); at most 10 nM in experiment [2] (read-out: BTK Inhibition); at least 10 µM in experiment [3]; at least 10 µM in experiment [5]; 10 to 100 nM in experiment [6].

For `C=CC(=O)N1CCC[C@@H](n2c(=O)n(-c3ccc(Oc4ccccc4)cc3)c3cnccc32)C1` [Example 20, (R)-1-(1-acryloylpiperidin-3-yl)-3-(4-phenoxyphenyl)-1H-imidazo[4,5-c]pyridin-2(3H)-one], the IC50 is 10 to 100 nM in experiment [2] (Table 2, read-out: BTK IC50); 10 to 100 nM in experiment [2] (read-out: BTK Inhibition); 1 to 10 µM in experiment [3]; at least 10 µM in experiment [5]; 10 to 100 nM in experiment [6].

Turning to `C=CC(=O)N1CC[C@@H](n2c(=O)n(-c3ccc(Oc4cccc(Cl)c4F)cc3)c3cnccc32)C1` [Example 133, (R)-1-(1-acryloylpyrrolidin-3-yl)-3-(4-(3-chloro-2-fluorophenoxy)phenyl)-1H-imidazo[4,5-c]pyridin-2(3H)-one], the IC50 in experiment [2] (Table 2, read-out: BTK IC50) was at most 10 nM; in experiment [2] (read-out: BTK Inhibition), at most 10 nM; in experiment [3] it was at least 10 µM; in experiment [5] it was at least 10 µM; in experiment [6], 10 to 100 nM.

`C=CC(=O)N1CC[C@@H](n2c(=O)n(-c3ccc(Oc4ccccc4)c(Cl)c3)c3cnccc32)C1` [Example 5, (R)-1-(1-acryloylpyrrolidin-3-yl)-3-(3-chloro-4-phenoxyphenyl)-1H-imidazo[4,5-c]pyridin-2(3H)-one]: the “Btk occupancy in vivo” value in experiment [7] is on record as “full occupancy”. Also, the IC50 in experiment [1] was 10 to 100 nM; in experiment [2] (Table 2, read-out: BTK IC50), at most 10 nM; in experiment [2] (read-out: BTK Inhibition), at most 10 nM; in experiment [3], at least 10 µM; in experiment [5], at least 10 µM. Further, the “occupancy of the active site of Btk” value in experiment [4] is given as “fully occupy”.
